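Following 48 hours of exposure in 96-well plates, responses at five concentrations were used to interpolate endpoints linearly. GI50 = concentration required for 50% inhibition of growth. TGI is the concentration that stops growth completely.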
Assays:
Assay in all cases: inhibition of tumour cell growth, NCI panel, 48 h
SK-OV-3 ovarian = system: SK-OV-3 ovarian
MDA-MB-231 breast = system: MDA-MB-231 breast
K-562 leukemia = system: K-562 leukemia
PC-3 prostate = system: PC-3 prostate
HOP-62 NSCLC = system: HOP-62 NSCLC
DU-145 prostate = system: DU-145 prostate
HL-60(TB) leukemia = system: HL-60(TB) leukemia
UACC-257 melanoma = system: UACC-257 melanoma
A549 NSCLC = system: A549 NSCLC
CAKI-1 renal = system: CAKI-1 renal

SMILES | TGI (SK-OV-3 ovarian) [µM] | TGI (MDA-MB-231 breast) [µM] | TGI (K-562 leukemia) [µM] | TGI (PC-3 prostate) [µM] | TGI (HOP-62 NSCLC) [µM] | TGI (DU-145 prostate) [µM] | TGI (HL-60(TB) leukemia) [µM] | TGI (UACC-257 melanoma) [µM] | TGI (A549 NSCLC) [µM] | TGI (CAKI-1 renal) [µM] | GI50 (MDA-MB-231 breast) [µM] | GI50 (K-562 leukemia) [µM] | GI50 (PC-3 prostate) [µM] | GI50 (HOP-62 NSCLC) [µM] | GI50 (DU-145 prostate) [µM] | GI50 (UACC-257 melanoma) [µM] | GI50 (A549 NSCLC) [µM] | GI50 (CAKI-1 renal) [µM]
COc1ccc(/C=C(\C#N)c2nc(N)nc(N3N=C(C)CC3(C)C)n2)c(O)c1 | 65.1 | 44.8 | 84.7 | > 100 | 43.6 | 37.7 | 46.8 | 59.1 | 44.5 | 38.1 |  |  |  |  |  |  |  | 
CN(CCCNC(=O)c1cn(C)c2c1ccc1cc(Cl)c(Cl)cc12)CCCNC(=O)c1cn(C)c2c1ccc1cc(Cl)c(Cl)cc12 | 30.7 | 29.8 | 26.2 | 27.4 | > 57.7 | 31.6 | 8.32 | 52.4 | 32.4 | 27.1 |  |  |  |  |  |  |  | 
Cc1cc(O)c(C(C)C)cc1CN1CCCCC1 | > 100 | > 100 | > 100 | > 100 | > 100 | > 100 | > 100 | > 100 | > 100 | > 100 |  |  |  |  |  |  |  | 
OCCOCn1cc(Cn2ncc3c(SCc4ccccc4)ncnc32)nn1 | > 100 | > 100 | > 100 | > 100 | > 100 | > 100 | 45.1 | > 100 | > 100 | > 100 |  |  |  |  |  |  |  | 
NCCNc1nc(N2CCCC2)c2nc(Cl)c(NCc3ccccc3)nc2n1 | 3.79 | 2.87 | 0.182 | 7.62 | 3.64 | 3.55 | 3.99 | 4 | 3.36 | 15.2 |  |  |  |  |  |  |  | 
CC(Sc1ccccc1)C(CO)(CO)[N+](=O)[O-] (centres undefined) | 39.9 |  | 34.4 |  | 35.5 |  | 16 | 30.2 | 34.1 | 33.1 |  |  |  |  |  |  |  | 
COC(=O)C1C(C)N1C (centres undefined) | > 100 |  | > 100 |  | > 100 |  | > 100 | > 100 | > 100 |  |  |  |  |  |  |  |  | 
O=[n+]1c2c(n([O-])c3ccccc31)-c1cccc3cccc-2c13 |  | > 100 | > 100 | > 100 |  | > 100 | > 100 | > 100 | > 100 |  |  |  |  |  |  |  |  | 
NNC(=O)c1ccccc1Nc1ccccc1C(=O)NN | > 100 | > 100 | > 100 | > 100 | > 100 | > 100 | > 100 | > 100 | > 100 | > 100 |  |  |  |  |  |  |  | 
Nc1nc(N)c2c(n1)NC(c1ccccc1)CC(/C=C/c1ccc(Cl)cc1)=N2 (centres undefined) | 29.4 | 18.4 | 9.61 | 22 | 34 | 24.4 | 28.2 | 7.78 | 60.8 | 26.4 |  |  |  |  |  |  |  | 
O=S(=O)(O)c1cccc2c(N=Nc3c(O)ccc4ccccc34)cccc12 | > 100 | > 100 | > 100 | > 100 | > 100 | > 100 |  | > 100 | > 100 | > 100 |  |  |  |  |  |  |  | 
N[C@H]1CCN(c2c(F)cc3c(=O)c(C(=O)O)cn4c3c2Oc2cc3c(ccc5ccccc53)cc2-4)C1 | > 100 | 0.864 | > 100 | 6.34 | > 100 | > 100 | > 100 | > 100 | > 100 | > 100 |  |  |  |  |  |  |  | 
CC(=O)N(C)c1ccc2c(ccc[n+]2[O-])c1[N+](=O)[O-] |  |  | > 100 |  | > 100 |  | > 100 | > 100 | > 100 | > 100 |  |  |  |  |  |  |  | 
O=C1c2cc3c(cc2-c2c1c1ccc(Cl)cc1c(=O)n2C[C@H](O)[C@@H](O)[C@H](O)CO)OCO3 |  | 3.76 | > 100 | > 100 | 0.341 | > 100 |  | 0.396 | 0.476 | 0.4 | 0.333 | 0.0342 | 0.128 | 0.0186 | 0.0374 | 0.0771 | 0.112 | 0.0325
CC(=O)OC1CC(O)CC2=CCC3C4CCC(C(C)(O)C(O)CC5COC(=O)C5C)C4(C)CCC3C21C (centres undefined) | > 25 | > 25 | > 25 | > 25 | > 25 | > 25 | 12.8 | > 25 | > 25 | > 25 |  |  |  |  |  |  |  | 
CN(C)CCn1c(=O)c2ccc3c4c(nn3CCN(C)C)c3cc(N)ccc3n(c1=O)c24 | 0.621 | 0.195 | 16.7 | 0.114 | 0.201 | 0.438 | 0.506 | 0.433 | 0.114 | 1.47 |  |  |  |  |  |  |  | 
CCC(C)C1NC(=O)C2CCCN2C(=O)C(CC2CO2)OC(=O)CCNC(=O)C(C)N(C)C(=O)C(C(C)C)N(C)C1=O (centres undefined) | > 100 | > 100 | > 100 | > 100 |  | > 100 |  |  | > 33.6 | > 100 |  |  |  |  |  |  |  | 
CC1(C)CCC2(C(=O)OC3OC(CO)C(O)C(O)C3O)CCC3(C)C(=CCC4C5(C)CCC(OC6OC(CO)C(O)C(O)C6O)C(C)(C)C5CCC43C)C2C1 (centres undefined) | > 25 | > 25 | > 25 | > 25 | > 25 | > 25 | 16.4 | > 25 | > 25 | > 25 |  |  |  |  |  |  |  | 
Nc1ccc2c(c1)C(=O)N(O)C2=O | > 100 |  | > 100 |  | > 100 |  | > 100 | > 100 | > 100 |  |  |  |  |  |  |  |  | 

From PubChem BioAssay (NCI)
